This is an account of results in patent publication US10150757B2, “Quinazolinone derivatives as PARP inhibitors” (Janssen Pharmaceutica NV, priority 2004, dated 2018).

This assay concerns the target PARP-1 enzyme (Homo sapiens, UniProt P09874). Description: In vitro scintillation proximity assay (SPA) for PARP-1 inhibitory activity. The format is biochemical. Conditions: [3H]-NAD+, biotinylated histones, nicked DNA; read-out: in vitro SPA assay PARP-1 pIC50 (converted). How it is done: In Vitro Scintillation Proximity Assay (SPA) for PARP-1 Inhibitory Activity
Compounds of the present invention were tested in an in vitro assay based on SPA technology (proprietary to Amersham Pharmacia Biotech).
In principle, the assay relies upon the well established SPA technology for the detection of poly(ADP-ribosyl)ation of biotinylated target proteins, i.e histones. This ribosylation is induced using nicked DNA activated PARP-1 enzyme and [^3H]-nicotinamide adenine dinucleotide ([^3H]-NAD^+) as ADP-ribosyl donor.
As inducer of PARP-1 enzyme activity, nicked DNA was prepared. For this, 25 mg of DNA (supplier: Sigma) was dissolved in 25 ml DNAse buffer (10 mM Tris-HCl, pH 7.4; 0.5 mg/ml Bovine Serum Albumine (BSA); 5 mM MgCl2.6H2O and 1 mM KCl) to which 50 μl DNAse solution (1 mg/ml in 0.15M NaCl) was added. After an incubation of 90 min. at 37° C., the reaction was terminated by adding 1.45 g NaCl, followed by a further incubation at 58° C. for 15 min. The reaction mixture was cooled on ice and dialysed at 4° C. for respectively 1.5 and 2 hours against 1.5 l of 0.2M KCl, and twice against 1.5 l of 0.01M KCl for 1.5 and 2 h respectively. The mixture was aliquoted and stored at −20° C. Histones (1 mg/ml, type II-A, supplier: Sigma) were biotinylated using the biotinylation kit of Amersham and stored aliquoted at −20° C. A stock solution of 100 mg/ml SPA poly(vinyl toluene) (PVT) beads (supplier: Amersham) was made in PBS. A stock solution of [^3H]-NAD^+ was made by adding 120 μl of [^3H]-NAD^+ (0.1 mCi/ml, supplier: NEN) to 6 ml incubation buffer (50 mM Tris/HCl, pH 8; 0.2 mM DTT; 4 mM MgCl2). A solution of 4 mM NAD^+ (supplier: Roche) was made in incubation buffer (from a 100 mM stock solution in water stored at −20° C.). The PARP-1 enzyme was produced using art known techniques, i.e. cloning and expression of the protein starting from human liver cDNA. Information concerning the used protein sequence of the PARP-1 enzyme including literature references can be found in the Swiss-Prot database under primary accession number P09874. Biotinylated histones and PVT-SPA beads were mixed and pre-incubated for 30 min. at room temperature. PARP-1 enzyme (concentration was lot dependent) was mixed with the nicked DNA and the mixture was pre-incubated for 30 min. at 4° C. Equal parts of this histones/PVT-SPA beads solution and PARP-1 enzyme/DNA solution were mixed and 75 μl of this mixture together with 1 μl of compound in DMSO and 25 μl of [^3H]-NAD^+ was added per well into a 96-well microtiterplate. The final concentrations in the incubation mixture were 2 μg/ml for the biotinylated histones, 2 mg/ml for the PVT-SPA beads, 2 μg/ml for the nicked DNA and between 5-10 μg/ml for the PARP-1 enzyme. After incubation of the mixture for 15 min. at room temperature, the reaction was terminated by adding 100 μl of 4 mM NAD^+ in incubation buffer (final concentration 2 mM) and plates were mixed.
The beads were allowed to sediment for at least 15 min. and plates transferred to a TopCountNXT™ (Packard) for scintillation counting, values were expressed as counts per minute (cpm). For each experiment, controls (containing PARP-1 enzyme and DMSO without compound), a blank incubation (containing DMSO but no PARP-1 enzyme or compound) and samples (containing PARP-1 enzyme and compound dissolved in DMSO) were run in parallel. All compounds tested were dissolved and eventually further diluted in DMSO. In first instance, compounds were tested at a concentration of 10^−5M. […] In each test, the blank value was subtracted from both the control and the sample values. The control sample represented maximal PARP-1 enzyme activity. For each sample, the amount of cpm was expressed as a percentage of the mean cpm value of the controls. […] Herein the effects of test compounds are expressed as pIC50 (the negative log value of the IC50-value).

Molecules are shown by their SMILES.

Chain of PARP-1 enzyme (P09874 whole entry): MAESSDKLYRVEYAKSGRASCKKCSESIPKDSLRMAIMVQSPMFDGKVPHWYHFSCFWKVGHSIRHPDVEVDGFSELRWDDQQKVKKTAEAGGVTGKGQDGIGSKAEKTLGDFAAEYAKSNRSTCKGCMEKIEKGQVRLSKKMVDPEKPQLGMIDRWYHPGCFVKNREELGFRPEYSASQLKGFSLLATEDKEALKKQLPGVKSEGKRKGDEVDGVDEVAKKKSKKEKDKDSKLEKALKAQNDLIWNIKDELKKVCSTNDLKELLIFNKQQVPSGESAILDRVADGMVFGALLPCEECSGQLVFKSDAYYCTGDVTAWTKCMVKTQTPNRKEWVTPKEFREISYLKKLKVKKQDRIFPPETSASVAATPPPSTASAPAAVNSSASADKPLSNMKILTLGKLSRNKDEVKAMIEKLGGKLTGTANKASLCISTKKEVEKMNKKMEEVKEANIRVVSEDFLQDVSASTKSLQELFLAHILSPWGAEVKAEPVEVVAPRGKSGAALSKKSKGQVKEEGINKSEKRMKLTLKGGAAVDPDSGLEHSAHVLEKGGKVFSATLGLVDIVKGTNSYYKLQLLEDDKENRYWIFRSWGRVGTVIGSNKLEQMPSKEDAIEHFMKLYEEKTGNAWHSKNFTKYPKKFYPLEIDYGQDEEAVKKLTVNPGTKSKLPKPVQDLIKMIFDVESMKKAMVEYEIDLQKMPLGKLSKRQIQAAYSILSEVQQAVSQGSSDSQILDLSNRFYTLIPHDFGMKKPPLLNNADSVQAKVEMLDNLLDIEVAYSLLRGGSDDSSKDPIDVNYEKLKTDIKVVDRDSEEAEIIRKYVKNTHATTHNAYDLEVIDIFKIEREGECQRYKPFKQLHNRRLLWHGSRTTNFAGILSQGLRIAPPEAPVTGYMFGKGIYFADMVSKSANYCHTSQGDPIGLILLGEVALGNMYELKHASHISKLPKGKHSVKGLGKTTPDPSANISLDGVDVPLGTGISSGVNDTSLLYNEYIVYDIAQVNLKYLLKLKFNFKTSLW

As to `O=c1[nH]c(NCCN2CCC(Nc3nc4ccccc4c(=O)[nH]3)CC2)nc2ccccc12` [Compound 30], the IC50 was 32.3 nM.

Take `O=c1nc(NCCCN2CCC(Nc3nccc4ccccc34)CC2)[nH]c2ccccc12` [Compound 40]: the IC50 is 322 nM.

On to `CCc1cc2cc(CN3CCN(CCNc4nc5ccccc5c(=O)[nH]4)CC3)ccc2nc1OC` [Compound 3], for which the IC50 is 535 nM.

With `O=c1[nH]c(NCCN2CCC(c3n[nH]c4cc(F)ccc34)CC2)nc2cc(Cl)ccc12` [Compound 31], the IC50 is 39.4 nM.

Take `CO[C@@H]1CN(CCCNc2nc(O)c3ccccc3n2)CCN1NC(=O)c1cc(Cl)c(N)c2c1OC(C)(C)C2` [Compound 8]: the IC50 was 535 nM.

Turning to `Cc1ccc2nc(NCCN3CCC(c4n[nH]c5cc(F)ccc45)CC3)[nH]c(=O)c2c1` [Compound 37], the IC50 was 15.3 nM.

For the compound `CC1(C)Cc2c(N)c(Cl)cc(C(=O)NC3CCN(CCCCNc4nc(O)c5ccccc5n4)CC3)c2O1` [Compound 5], the IC50 is 638 nM.

As to `O=c1[nH]c(NCCCN2CCN(c3nsc4ccccc34)CC2)nc2ccccc12` [Compound 24], the IC50 is 785 nM.

Regarding `O=c1[nH]c(NCCN2CCC(Nc3n[nH]c(=O)c4ccccc34)CC2)nc2ccccc12` [Compound 33], the IC50 was 34.8 nM.

As for `O=c1[nH]c(NCCN2CCN(c3n[nH]c4ccccc34)CC2)nc2cc(Cl)ccc12` [Compound 44], the IC50 is 29.3 nM.

With `CO[C@H]1CN(CCCNc2nc3ccccc3c(=O)[nH]2)CC[C@H]1NC(=O)c1cc(Cl)cc2c1OC(C)(C)C2` [Compound 18], the IC50 was 847 nM.

Turning to `O=c1[nH]c(NCCN2CCN(c3n[nH]c4cc(F)ccc34)CC2)nc2ccccc12` [Compound 41], the IC50 is 44.5 nM.

Turning to `O=c1[nH]c(NCCN2CCC(c3n[nH]c4cc(F)ccc34)CC2)nc2ccc(Cl)cc12` [Compound 36], the IC50 is 10.8 nM.

Turning to `CCCCn1cc(C2CCN(CCCNc3nc4ccccc4c(=O)[nH]3)CC2)c2ccccc21` [Compound 28], the IC50 is 1490 nM.

On to `Cc1cccc2nc(NCCN3CCN(c4n[nH]c5ccccc45)CC3)[nH]c(=O)c12` [Compound 39], for which the IC50 was 9.93 nM.

As for `O=c1[nH]c(NCCCN2CCC(O)(c3ccc(Cl)cc3)CC2)nc2ccccc12` [Compound 2], the IC50 was 133 nM.

As to `O=C(c1ccc(F)cc1)C1CCN(CCNc2nc3ccccc3c(=O)[nH]2)CC1` [Compound 46], the IC50 is 231 nM.

Regarding `O=c1[nH]c(NCCN2CCC(c3n[nH]c4cc(F)ccc34)CC2)nc2ccccc12` [Compound 21], the IC50 is 25.5 nM.

Turning to `Nc1c(Cl)cc(C(=O)NC2CCN(CCCNc3nc(O)c4ccccc4n3)CC2)c2c1CCO2` [Compound 45], the IC50 is 225 nM.

For `O=c1[nH]c(NCCCN2CCC(n3c(=O)[nH]c4ccccc43)CC2)nc2ccccc12` [Compound 29], the IC50 is 785 nM.

Consider `O=c1[nH]c(NCCCN2CCN(c3n[nH]c4ccccc34)CC2)nc2ccccc12` [Compound 22], for which the IC50 is 46.3 nM.

As to `O=c1[nH]c(NCCCN2CCN(c3n[nH]c4cc(F)ccc34)CC2)nc2ccccc12` [Compound 27], the IC50 was 44.4 nM.

As for `O=c1[nH]c(NCCCN2CCC(c3noc4cc(F)ccc34)CC2)nc2ccccc12` [Compound 26], the IC50 is 425 nM.

As to `CC1(C)Cc2c(N)c(Cl)cc(C(=O)NC3CCN(CCCNc4nc(O)c5ccccc5n4)CC3)c2O1` [Compound 4], the IC50 is 718 nM.

`CO[C@@H]1CN(CCCNc2nc(O)c3ccccc3n2)CC[C@@H]1NC(=O)c1cc(Cl)c(N)c2c1OCCC2` [Compound 6]: the IC50 was 387 nM.

For `O=c1[nH]c(NCCCN2CCC(c3n[nH]c4cc(F)ccc34)CC2)nc2ccccc12` [Compound 25], the IC50 was 190 nM.

In the case of `O=c1[nH]c(NCCCN2CCC(Nc3cccc4ccccc34)CC2)nc2ccccc12` [Compound 42], the IC50 was 841 nM.

As for `Nc1c(Cl)cc(C(=O)OCC2CCN(CCNc3nc4ccccc4c(=O)[nH]3)CC2)c2c1OCCO2` [Compound 7], the IC50 is 592 nM.

`O=C(NC1CCN(CCCNc2nc3ccccc3c(=O)[nH]2)CC1)c1ccccc1` [Compound 23]: the IC50 is 687 nM.

Take `O=c1[nH]c(NCCN2CCN(c3nc4ccccc4c(=O)[nH]3)CC2)nc2ccccc12` [Compound 38]: the IC50 is 424 nM.

For the compound `Cc1ccc2nc(NCCN3CCN(c4n[nH]c5ccccc45)CC3)[nH]c(=O)c2c1` [Compound 43], the IC50 is 12.4 nM.

Consider `O=c1[nH]c(NCCCN2CCC(c3c[nH]c4ccccc34)CC2)nc2ccccc12` [Compound 20], for which the IC50 was 675 nM.

On to `O=c1[nH]c(NCCN2CCN(c3n[nH]c4ccccc34)CC2)nc2ccc(Cl)cc12` [Compound 1], for which the IC50 was 7.76 nM.
